Key:
Type in all cases: in vivo
Summer wheat = assay: Crop damage in outdoor trials; conditions: 30 g of AS/ha, scored approx. 4-6 weeks after application
Description: (§1) Herbicidal Action (Outdoor Trials)
(§2) The seeds or rhizome pieces of typical harmful plants were planted and grown under natural outdoor conditions. After the harmful plants had emerged, they were treated, as a rule at the 2- to 4-leaf stage, with various dosages of the compositions according to the invention at a water application rate of 100 to 400 l/ha (converted).
(§3) After the treatment (approx. 4-6 weeks after application), the herbidical activity of the active compounds or active compound mixtures was scored visually by comparing the treated plots with the untreated control plots. Damage and development of all above-ground parts of the plants was recorded. Scoring was done on a percentage scale (100% action=all plants dead; 50% action=50% of the plants and green plant parts dead; 0% action=no discernible action=like control plot). The score figures of in each case 4 plots were averaged. The results are listed in the tables below, where the activity measured for the independent use of the active compounds (A+B) and C) is stated in brackets.

Aspera spica venti = assay: Herbicidal action (outdoor trials); conditions: 30 g of AS/ha, scored approx. 4-6 weeks after application
Description: as §1, §2, §3

Brassica naupus = assay: Herbicidal action (outdoor trials); conditions: 30 g of AS/ha, scored approx. 4-6 weeks after application
Description: as §1, §2, §3

Polygonum convolvulus = assay: Herbicidal action (outdoor trials); conditions: 30 g of AS/ha, scored approx. 4-6 weeks after application
Description: as §1, §2, §3

Physalis spp. = assay: Herbicidal action (outdoor trials); conditions: 30 g of AS/ha, scored approx. 4-6 weeks after application
Description: as §1, §2, §3

Wheat = assay: Crop damage in outdoor trials; conditions: 750 g of AS/ha, scored approx. 4-6 weeks after application, trial with Avena ludoviciana
Description: as §1, §2, §3

Avena ludoviciana = assay: Herbicidal action (outdoor trials); conditions: 750 g of AS/ha, scored approx. 4-6 weeks after application
Description: as §1, §2, §3

Winter wheat = assay: Crop damage in outdoor trials
Description: as §1, §2, §3

Veronic pericaria = assay: Herbicidal action (outdoor trials); conditions: 150 g of AS/ha, scored approx. 4-6 weeks after application
Description: as §1, §2, §3

Papaver rhoeas = assay: Herbicidal action (outdoor trials); conditions: scored approx. 4-6 weeks after application
Description: as §1, §2, §3

`CCOC(=O)[C@@H](C)Oc1ccc(Oc2nc3ccc(Cl)cc3o2)cc1` [J), fenoxaprop-P-ethyl] was tested, and the “Summer wheat % damage” value (Summer wheat) was 0%, the “Aspera spica venti % activity” value (Aspera spica venti) was 25% and the “Brassica naupus % activity” value (Brassica naupus) was 0%. For the same molecule, the “Polygonum convolvulus % activity” value (Polygonum convolvulus) was 0% and the “Physalis spp. % activity” value (Physalis spp.) was 0%.
`Cc1cc(Cl)ccc1OCC(=O)O` [C), (4-chloro-2-methylphenoxy)acetic acid] was tested, and the “Wheat wheat % damage” value (Wheat) was 0% and the “Avena ludoviciana % activity” value (Avena ludoviciana) was 0%.
`Nc1c(Cl)c(F)nc(OCC(=O)O)c1Cl` [I), 4-amino-3,5-dichloro-6-fluoro-2-pyridyloxy acetic acid] was tested, and the “Winter wheat % damage” value (Winter wheat; in vivo) was 1% and the “Veronic pericaria % activity” value (Veronic pericaria) was 50%.
`N#Cc1cc(Br)c(O)c(Br)c1` [E), 3,5-dibromo-4-hydroxy-benzonitrile] was tested, and the “Winter wheat % damage” value (Winter wheat; 240 g of AS/ha, outdoor, scored approx. 4-6 weeks after application, trial with Papaver rhoeas) was 0% and the “Papaver rhoeas % activity” value (Papaver rhoeas; 240 g of AS/ha) was 85%.
`COc1nc(C)nc(NC(=O)NS(=O)(=O)c2ccccc2OCCCl)n1` [D), 1-[2-(2-chloroethoxy)phenylsulfonyl]-3-(4-methoxy-6-methyl-1,3,5-triazin-2-yl)urea] was tested, and the “Winter wheat % damage” value (Winter wheat; 15 g of AS/ha, outdoor, scored approx. 4-6 weeks after application, trial with Papaver rhoeas) was 0% and the “Papaver rhoeas % activity” value (Papaver rhoeas; 15 g of AS/ha) was 65%.

Reference: US20030186816A1, “Herbicide combinations comprising specific sulfonylureas” (Bayer CropScience GmbH, priority 2002, published 2003)
